Each structure is given as a SMILES string. Values after ≈ are worked out from the molar mass of the structure shown.

In the assay the test system is E. coli. The assay can be described thus: Bacterial susceptibility testing, MIC by broth microdilution (CLSI). Particulars: for MIC: Escherichia coli, read-out: E. coli MIC, broth microdilution, 35° C., 18-24 h; for E. coli MIC: broth microdilution, 35° C., 18-24 h. (Broth dilution looks for growth in wells or tubes with falling amounts of substance.)

With `COC1CN(Cc2ccc(C#Cc3ccc([C@H](CNC4(C)CC4)Cc4nc[nH]c(=O)c4O)cc3)cc2)C1` (single isomer, unassigned) [Compound 250], the MIC was less than 1 µg/mL.

`O=c1[nH]cnc(CC(CNCCCF)c2ccc(C#Cc3ccc(CN4CCOCC4)cc3)cc2)c1O` (stereo not shown) [Compound 107]: the “E. coli MIC” value was “A (A: ≤1 μg/mL)”. Regarding `N#CC1CCN(Cc2ccc(C#Cc3ccc([C@@H](CO)Cc4nc[nH]c(=O)c4O)cc3)cc2)C1` (stereo partly shown) [Compound 33], the minimal inhibitory concentration (MIC) is less than 1 µg/mL. Consider `O=C(O)C(Cc1nc[nH]c(=O)c1O)N1Cc2cc(-c3ccc(CCN4CCOCC4)cc3)cn2C1=O` (stereo not shown) [Compound 212], for which the minimum inhibitory concentration (MIC) was greater than 32 µg/mL. Same read-out and setting: with `C[C@@H](CF)NCC(Cc1nc[nH]c(=O)c1O)c1ccc(C#Cc2ccc(CN3CC(CC#N)C3)cc2)cc1` (mixture of isomers) [Compound 95] the figure was less than 1 µg/mL; with `O=c1[nH]cnc(CC(CO)c2ccc(C#Cc3ccc(CNCC4CC4)cc3)cc2)c1O` (stereo not shown) [Compound 58], 1 to 8 µg/mL (≈ 2.33 to 18.6 µM). On to `CO[C@@H]1CCN(Cc2ccc(C#Cc3ccc(C(CNCC(C)F)Cc4nc[nH]c(=O)c4O)cc3)cc2)C1` (single isomer, unassigned) [Compound 137], for which the “E. coli MIC” value is “B (B: >1 μg/mL to ≤8.0 μg/mL)”. With `O=c1[nH]cnc(CC2CCc3cc(C#Cc4ccc(CN5CCOCC5)cc4)ccc32)c1O` (stereo not shown) [Compound 209], the MIC is 1 to 8 µg/mL (≈ 2.26 to 18.1 µM). For `CO[C@@H]1CCN(Cc2ccc(C#Cc3ccc(C(CN[C@@H](C)CF)Cc4nc[nH]c(=O)c4O)cc3)cc2)C1` (mixture of isomers) [Compound 86], the MIC is less than 1 µg/mL. As for `CC(=O)NC[C@@H](Cc1nc[nH]c(=O)c1O)c1ccc(C#Cc2ccc(CN3CCOCC3)cc2)cc1` (single isomer, unassigned) [Compound 303], the minimal inhibitory concentration (MIC) was less than 1 µg/mL. Consider `O=c1[nH]cnc(CC(CO)c2ccc(C#Cc3ccc(CN[C@H]4CCOC4)cc3)cc2)c1O` (single isomer, unassigned) [Compound 9], for which the “E. coli MIC” value is listed as “B (B: >1 μg/mL to ≤8.0 μg/mL)”. The same measure, in the same setting: with `COC1CN(Cc2ccc(C#Cc3ccc(C(CNC4CC4)Cc4nc[nH]c(=O)c4O)cc3)cc2)C1` (stereo not shown) [Compound 224] the entry was “B (B: >1 μg/mL to ≤8.0 μg/mL)”.

With `O=c1[nH]cnc(CC(CO)c2ccc(C#Cc3ccc(CN4CCOCC4)nc3)cc2)c1O` (stereo not shown) [Compound 195], the MIC was 1 to 8 µg/mL (≈ 2.24 to 17.9 µM). On to `COC1CN(Cc2ccc(C#Cc3ccc([C@@H](CNCC(F)F)Cc4nc[nH]c(=O)c4O)c(F)c3)cc2)C1` (single isomer, unassigned) [Compound 282], for which the MIC is less than 1 µg/mL. The same measure, in the same setting: with `COC1CN(Cc2ccc(C#Cc3ccc(C(CNC4CC4)Cc4nc[nH]c(=O)c4O)cc3)cc2)C1` (stereo not shown) [Compound 223] the figure was less than 1 µg/mL; with `N=[S@@]1(=O)CC[C@H](NCc2ccc(C#Cc3ccc(C(CO)Cc4nc[nH]c(=O)c4O)cc3)cc2)C1` (mixture of isomers) [Compound 151], 1 to 8 µg/mL. In the case of `COC(=O)C(Cc1nc[nH]c(=O)c1O)c1ccc(C#Cc2ccc(CNC3CCOC3)cc2)cc1` (stereo not shown) [Compound 27], the MIC was in the range of 1 to 8 µg/mL (≈ 2.11 to 16.9 µM). On the same count and under the same terms, with `O=C(CO)NC[C@@H]1CCCN1Cc1ccc(C#Cc2ccc(C(CO)Cc3nc[nH]c(=O)c3O)cc2)cc1` (mixture of isomers) [Compound 158] the figure was 1 to 8 µg/mL. Take `O=C(C1CC1)N1CC[C@@H](NCc2ccc(C#Cc3ccc(C(CO)Cc4nc[nH]c(=O)c4O)cc3)cc2)C1` (stereo partly shown) [Compound 153]: the minimum inhibitory concentration (MIC) is less than 1 µg/mL. On to `C[C@@H](CO)NCC(Cc1nc[nH]c(=O)c1O)c1ccc(C#Cc2ccc(CN3CCOCC3)cc2)cc1` (single isomer, unassigned) [Compound 169], for which the “E. coli MIC” value was “A (A: ≤1 μg/mL)”. In the case of `N#C[C@@H]1CCN(Cc2ccc(C#Cc3ccc(C(CO)Cc4nc[nH]c(=O)c4O)cc3)cc2)C1` (stereo partly shown) [Compound 36], the MIC was less than 1 µg/mL. Same read-out and setting: with `Cn1cc(C#Cc2ccc(C(CO)Cc3nc[nH]c(=O)c3O)cc2)cn1` (stereo not shown) [Compound 197] the figure was 8 to 32 µg/mL (≈ 22.8 to 91.3 µM); with `COC1CN(Cc2ccc(C#Cc3ccc([C@](C)(CNC4CC4)Cc4nc[nH]c(=O)c4O)cc3)cc2)C1` (single isomer, unassigned) [Compound 227], 1 to 8 µg/mL (≈ 2.01 to 16 µM). Same read-out and setting: with `O=c1[nH]cnc(C[C@H](CN2CC(F)C2)c2ccc(C#Cc3ccc(CN4CCOCC4)cc3)cc2)c1O` (single isomer, unassigned) [Compound 216] the figure was less than 1 µg/mL; with `COCCNCc1ccc(C#Cc2ccc(C(CO)Cc3nc[nH]c(=O)c3O)cc2)cc1` (stereo not shown) [Compound 57], 1 to 8 µg/mL (≈ 2.31 to 18.5 µM).

With `O=c1[nH]cnc(CC(CO)c2ccc(C#Cc3ccc(CN4CC5(COC5)C4)cc3)cc2)c1O` (stereo not shown) [Compound 47], the minimum inhibitory concentration (MIC) was 1 to 8 µg/mL (≈ 2.19 to 17.5 µM). Turning to `N=S1(=O)CCC(NCc2ccc(C#Cc3ccc(C(CO)Cc4nc[nH]c(=O)c4O)cc3)cc2)C1` (stereo not shown) [Compound 56], the MIC lay in the range of 1 to 8 µg/mL (≈ 2.03 to 16.2 µM). In the case of `CC(CO)(Cc1nc[nH]c(=O)c1O)c1ccc(C#Cc2ccc(CN3CCOCC3)cc2)cc1` (stereo not shown) [Compound 31], the MIC is less than 1 µg/mL. On the same count and under the same terms, with `C[C@@H](O)CNC[C@@H](Cc1nc[nH]c(=O)c1O)c1ccc(C#Cc2ccc(CN3CCOCC3)cc2)cc1` (single isomer, unassigned) [Compound 248] the figure was less than 1 µg/mL; with `CCOC(=O)C(Cc1nc[nH]c(=O)c1O)c1ccc(C#Cc2ccc(CNC3CCOC3)cc2)cc1` (stereo not shown) [Compound 26], 1 to 8 µg/mL (≈ 2.05 to 16.4 µM); with `COC(=O)C(Cc1nc[nH]c(=O)c1O)c1ccc(C#Cc2ccc(CN3CCOCC3)cc2)cc1` (stereo not shown) [Compound 24], less than 1 µg/mL.

Take `O=c1[nH]cnc(CC(CO)c2ccc(C#Cc3ccc(CNC4CCNCC4)cc3)cc2)c1O` (stereo not shown) [Compound 259]: the minimal inhibitory concentration (MIC) lay within 1 to 8 µg/mL (≈ 2.18 to 17.4 µM). On the same count and under the same terms, with `COCCNCC(Cc1nc[nH]c(=O)c1O)c1ccc(C#Cc2ccc(CN3CCOCC3)cc2)cc1` (stereo not shown) [Compound 164] the figure was 1 to 8 µg/mL (≈ 1.99 to 15.9 µM); with `CC(CC#N)NCC(Cc1nc[nH]c(=O)c1O)c1ccc(C#Cc2ccc(CN3CCOCC3)cc2)cc1` (stereo not shown) [Compound 97], less than 1 µg/mL.

Consider `O=c1[nH]cnc(CC(CN[C@@H]2CCOC2)c2ccc(C#Cc3ccc(CN4CCOCC4)cc3)cc2)c1O` (single isomer, unassigned) [Compound 163], for which the “E. coli MIC” value is on record as “A (A: ≤1 μg/mL)”. For `O=c1[nH]cnc(CC(CNCCF)c2ccc(C#Cc3ccc(CN4CCOCC4)cc3)cc2)c1O` (stereo not shown) [Compound 6], the MIC lay in the range of 1 to 8 µg/mL (≈ 2.04 to 16.3 µM).

Regarding `N[C@@H]1CCN(Cc2ccc(C#Cc3ccc(C(CO)Cc4nc[nH]c(=O)c4O)cc3)cc2)C1` (mixture of isomers) [Compound 292], the MIC fell in the range of 1 to 8 µg/mL. `O=C(NCCF)C(Cc1nc[nH]c(=O)c1O)c1ccc(C#Cc2ccc(CN[C@H]3CCOC3)cc2)cc1` (mixture of isomers) [Compound 30]: the MIC was 1 to 8 µg/mL.

For the molecule `O=C(CO)N(Cc1ccc(C#Cc2ccc(C(CO)Cc3nc[nH]c(=O)c3O)cc2)cc1)[C@@H]1CCNC1` (mixture of isomers) [Compound 154], the minimal inhibitory concentration (MIC) was 8 to 32 µg/mL. With `COC1CN(Cc2ccc(C#Cc3ccc(C(Cc4nc[nH]c(=O)c4O)CN4CC(OC)C4)cc3)cc2)C1` (stereo not shown) [Compound 176], the “E. coli MIC” value was “A (A: ≤1 μg/mL)”. On to `COC1CN(Cc2ccc(C#Cc3ccc(C(Cc4nc[nH]c(=O)c4O)CN4CC(F)C4)cc3)cc2)C1` (stereo not shown) [Compound 159], for which the “E. coli MIC” value was “A (A: ≤1 μg/mL)”.

Take `O=C(CO)N1CCN(Cc2ccc(C#Cc3ccc(C(CO)Cc4nc[nH]c(=O)c4O)cc3)cc2)CC1` (stereo not shown) [Compound 152]: the MIC is less than 1 µg/mL. Still for that read-out and setting: with `O=c1[nH]cnc(CC(CNCCF)c2ccc(C#Cc3ccn4cncc4c3)cc2)c1O` (stereo not shown) [Compound 207] the figure was 1 to 8 µg/mL (≈ 2.32 to 18.5 µM).

One may read the MIC as the lowest concentration that inhibits growth of the organism.
